Source: patent US5736352A, “Method and apparatus for determination of the activity of cholesterol oxidase and method and apparatus for evaluation of the toxicity of chemical substances” (priority 1995, dated 1998)
Where two headings read alike, the source gives them in different places.

System: cholesterol oxidase
Format: biochemical
Conditions: for effect of the chemical substance on the activity of the cholesterol oxidase (toxicity), curve compared with curve 22: 1 mU/ml cholesterol oxidase, pH 7.45
[1] = 10 micro-M substance, film 70 mol % L-α-dimyristylphosphatizircoline / 30 mol % cholesterol

Description: Any chemical substrance to be evaluated on the toxicity is previously dissolved or dispersed in the cholesterol oxidase solution 12. A monomolecule film is formed on a surface of the cholesterol oxidase solution 12 by use of a monomolecule film development solution including any phospholipid and any sterol. The surface pressure of the monomolecule film is measured to find a rate in the increase of the surface pressure of the monomolecule film. […] The reduction in the activity of the cholesterol oxidase results in a reduction in the increasing rate of the surface pressure of the monomolecule film. […] This means that the toxicitic chemical substance would be present in the cholesterol oxidase solution.
As a cholesterol oxidase solution 12, there was used a buffer solution including N-2-hydroxyethylpiperzane-N'-2-ethane sulfuric acid, where the ion strength is 0.1 and pH value is 7.45 as well as 1 mU/ml of the cholesterol oxidase is dissolved in the buffer solution. […] As a monomolecule film development solution 13, there was used a monomolecule film development solution comprising 70 mol % of L-α-dimyristylphosphatizircoline and 30 mol % of cholesterol.
The increasing rate of the surface pressure of the monomolecule film depends upon file cholesterol oxidase activity. As described above, the activity of the cholesterol oxidase depends upon the rate of increase in the surface pressure of the monomolecule film.

Row | Compound | effect of the chemical substance on the activity of the cholesterol oxidase (toxicity), curve compared with curve 22 [1] | further results
1 | [Ca+2].[Cl-].[Cl-] [calcium chloride] | no toxicity | 
2 | CC(=O)[O-].CC(=O)[O-].[Pb+2] [lead acetate] | reduces the activity of the cholesterol oxidase | Linear Differential Coefficient (rate of increase in the surface pressure of the monomolecule film) (Cholesterol Oxidase 1 mU/ml, Lead Acetate 10 μ Mol, film 70 mol % L-α-dimyristylphosphatizircoline / 30 mol % cholesterol, five minutes after film was prepared, curve 23 (curve 22 without substance: 5.5 × 10^-2)): 4.2 × 10^-2 mN/mmin.
3 | [Cl][Hg][Cl] [mercury chloride] |  | effect of the chemical substance on the activity of the cholesterol oxidase (toxicity), curve compared with curve 22 (10 micro-M substance, film 70 mol % L-α-dipalmytylphosphatizircoline / 30 mol % dihydrocholesterol): reduces the activity of the cholesterol oxidase
4 | CCCCCCCCCCCCOS(=O)(=O)[O-].[Na+] [sodium dodecylsulfate] |  | effect of the chemical substance on the activity of the cholesterol oxidase (toxicity), curve compared with curve 22 (1 micro-M substance, film 70 mol % L-α-di-palmytylphosphatizir-ethanol / 30 mol % pregnenolone): reduces the activity of the cholesterol oxidase
5 | [Cl-].[Cl-].[Zn+2] [zinc chloride] | reduces the activity of the cholesterol oxidase | 
